Like-named read-outs stand apart in the source and are kept apart here.
What was measured:
[1] = SOD-like activity: inhibition of superoxide reduction of nitroblue tetrazolium (DMSO-KO2 / xanthine-xanthine oxidase); type: biochemical; details: for IC50 / Percent Reactivity (SOD-like activity): Table I; for IC50: read-out: Concentration: compound required for 50% inhibition of superoxide reduction of nitroblue tetrazolium; for Percent Reactivity (SOD-like activity): relative to Cu-Zn SOD = 100
[2] = cited from earlier work
[3] = pH 7.0; cited from earlier work
[4] = pH 12; cited from earlier work
[5] = tested on: patients; details: ongoing clinical trials; cited from earlier work
[6] = Rate of superoxide dismutation; type: biochemical; details: Table I
Source text: The enzyme superoxide dismutase (SOD) plays a significant role in the defense against oxygen toxicity in aerobic organisms. Superoxide dismutase catalyzes the dismutation of O2^-, as follows:.
2 ^- O-O^. +2H^+ →H2 O2 +^. O-O^.
**Weser, et al., In "Inflammatory Diseases and Copper", Sorenson (ed.),
Humana Press: Clifton, New Jersey (1982), p. 513

[7] = tested on: rats; assay: Acute toxicity in rats (subcutaneous); type: in vivo
Protocol: (§1) The particular embodiment described in complete detail herein concerns the use of Cu(II)(3,5-dips)2. […] A minimum prophylatic dose would be about 0.001 mg/kg, while a therapeutic dose would range from about 1 mg to 100 mg/kg, depending upon the radiation dose. Therapeutic doses would be initiated about two weeks before radiotherapy, and would continue as necessary after the radiation treatment. For cases of accidental exposure, treatment would be initiated immediately after exposure and continued as necessary thereafter. Prophylactic doses would be taken on a continuing basis, for example a daily basis, as long as the recurrent radiation exposure continued. In any of these cases, the route of administration might be oral, topical, rectal or parenteral (e.g., intramuscular, intravenous, subcutaneous, or intraperitoneal).
Copper 3,5-diisopropylsalicylate was synthesized according to the method of Sorenson, J. Med. Chem. 19:135 (1976), which is incorporated herein by reference.

[8] = tested on: human beings; assay: Predicted toxicity in human beings by extrapolation; details: per body weight
Protocol: as §1

[9] = tested on: mice; assay: Acute toxicity in mice (subcutaneous); type: in vivo; details: subcutaneous injection, 10080 min
Protocol: as §1

[10] = tested on: lethally irradiated mice; assay: Radioprotection: survival of lethally irradiated (60Co) mice; type: in vivo, female B6CBFl mice
Protocol: One group of 22-control and two groups of 24-treated 8 to 10 week old female B6CBFl mice (Cumberland View Farms, Clinton, Tennessee) were used. Control animals were given a subcutaneous (sc) injection of 0.3 ml of vehicle (0.25% Tween 80 in 0.9% pyrogen-free sterile saline) 24 hours before irradiation. One treatment group was given a single sc injection of 0.49 mM/kg of Cu(II)(3,5-dips)2 in 0.3 ml of vehicle 3 hours before irradiation and the other group was given the same treatment 24 hours before irradiation.
This radiation dose was measured with an electrometer connected to 0.05 ml NBS calibrated ion chambers positioned inside wax phantom mice placed in plexiglass cages. The tissue to air ratio for these phantom mice has been determined to be 97 percent. Control and treated mice were housed 5 mice per cage and fed mouse chow and water ad libitum for the 30 day observation period.

[11] = 0.49 mM/kg sc 3 hours before 10 Gy, 30 day observation
[12] = 0.49 mM/kg sc 24 hours before 10 Gy, 30 day observation

Compound: CC(=O)Oc1ccccc1C(=O)[O-].CC(=O)Oc1ccccc1C(=O)[O-].CC(=O)Oc1ccccc1C(=O)[O-].CC(=O)Oc1ccccc1C(=O)[O-].CS(C)=O.CS(C)=O.[Cu+2].[Cu+2] [Cu(II)2 (acetylsalicylate)4 (DMSO)2]
- IC50 [1]: 2800 nM
- Percent Reactivity (SOD-like activity) [1]: 0.69%

Compound: CC(=O)Oc1ccccc1C(=O)[O-].CC(=O)Oc1ccccc1C(=O)[O-].CC(=O)Oc1ccccc1C(=O)[O-].CC(=O)Oc1ccccc1C(=O)[O-].CS(C)=O.CS(C)=O.CS(C)=O.CS(C)=O.[Cu+2].[Cu+2] [Cu(II)2 (acetylsalicylate)4 (dimethylsulfoxide)4]
- superoxide scavenging (in words) [1]: superoxide scavengers

Compound: CC(=O)Oc1ccccc1C(=O)[O-].CC(=O)Oc1ccccc1C(=O)[O-].CC(=O)Oc1ccccc1C(=O)[O-].CC(=O)Oc1ccccc1C(=O)[O-].[Cu+2].[Cu+2].c1ccncc1.c1ccncc1 [Cu(II)2 (acetylsalicylate)4 (pyridine)2]
- IC50 [1]: 2700 nM
- Percent Reactivity (SOD-like activity) [1]: 0.32%

Compound: CC(=O)Oc1ccccc1C(=O)[O-].CC(=O)Oc1ccccc1C(=O)[O-].CC(=O)Oc1ccccc1C(=O)[O-].CC(=O)Oc1ccccc1C(=O)[O-].[Cu+2].[Cu+2].c1ccncc1.c1ccncc1.c1ccncc1.c1ccncc1 [Cu(II)2 (acetylsalicylate)4 (pyridine)4]
- superoxide scavenging (in words) [1]: superoxide scavengers

Compound: CC(C)(C)c1cc(C(=O)[O-])c(O)c(C(C)(C)C)c1.CC(C)(C)c1cc(C(=O)[O-])c(O)c(C(C)(C)C)c1.[Cu+2] [Cu(II)(3,5-ditertiarybutylsalicylate)2]
- superoxide scavenging (in words) [1]: superoxide scavengers
- IC50 [1]: 6200 nM
- Percent Reactivity (SOD-like activity) [1]: 0.74%

Compound: O=C(O)c1ccccc1[O-].O=C(O)c1ccccc1[O-].[Cu+2] [Cu(II)(salicylate)2]
- superoxide scavenging (in words) [1]: superoxide scavengers
- IC50 [1]: 4600 nM
- Percent Reactivity (SOD-like activity) [1]: 0.65%
- Rate of superoxide dismutation ([2]; Table I, footnote ** (Weser et al.)): 1.6 × 10 M^-1 s^-1

Compound: O=C([O-])CN(CCN(CC(=O)[O-])CC(=O)O)CC(=O)O.[Na+].[Na+] [Na2 EDTA]
- Rate, Cu(II)(L)2 + HO^. [3]: 4e+09 M⁻¹ s⁻¹
- Rate, Cu(II)(L)2 + e^- aq [4]: 1e+10 M⁻¹ s⁻¹

Compound: NCCCNCCSP(=O)(O)O [WR2721, S-2-(3-aminopropylamino) ethyl-phosphorothioic acid]
- undesirable side effects [5]: emesis, hypertension, hypotension, somnolence and allergy

Compound: Cu(II)2 (acetylsalicylate)4
- superoxide scavenging (in words) [1]: superoxide scavengers
- IC50 [1]: 3100 nM
- Percent Reactivity (SOD-like activity) [1]: 0.043%

Compound: bovine SOD: pure bovine SOD
- sensitivity of the assay, ug SOD per unit of activity ([1]; pure bovine SOD, per unit of activity, pH 7.8): 0.85 µg

Compound: copper 3,5-diisopropylsalicylate [Cu(II)(3,5-dips)2]
- Rate of superoxide dismutation [6]: 1e+09 to 2e+09 M⁻¹ s⁻¹
- LD50 ([7]; subcutaneous): 240 +33 mg/kg
- LD50/7 ([7]; subcutaneous injection, 10080 min): 240 mg/kg
- superoxide scavenging (in words) [1]: superoxide scavengers
- IC50 [1]: 2900 nM
- efficiency in disproportionating superoxide compared with Cu-Zn SOD (in words) ([1]; based on Table I): not as efficient as Cu-Zn SOD
- mean SOD activity ([1]; modified assay, DMSO-KO2, pH 7.8): 17,400±1,800 units per milligram
- Percent Reactivity (SOD-like activity) [1]: 0.70%
- predicted LD50 in human beings [8]: approximately 250 mg/kg
- LD50/7 [9]: at least 280 mg/kg
- day post-irradiation after which none died ([10]; 0.49 mM/kg sc 3 hours before 10 Gy): 18 days
- number of surviving mice [10, 11]: 8 mice
- survival [10, 11]: Thirty-three
- day post-irradiation after which none died ([10]; 0.49 mM/kg sc 24 hours before 10 Gy): 19 days
- number of surviving mice [10, 12]: 14 mice
- survival [10, 12]: Fifty-eight
- survival ([10]; pretreatment interval 3 h, restated in comparison with Cu-Zn SOD): 33%
- survival ([10]; pretreatment interval 24 h, restated in comparison with Cu-Zn SOD): 58%
- survivors ([10]; similarly treated mice, irradiated with 12 Gy): no survivors
- protection compared with Cu-Zn SOD (in words) ([10]; vs Cu-Zn SOD data of Petkau, different conditions): much greater protection

Compound: superoxide dismutase: enzyme that catalyzes the dismutation of O2^-; native SOD has a molecular weight of about 32,000 daltons
- rate of O2^- dismutation, k ([2]; Czapski 1971): 1.3e+09 M⁻¹ s⁻¹

From patent US4657928A, “Organic copper complexes as radioprotectants” (priority 1984, dated 1987)
